Consider five molecules from PMC5891386 (Bioorganic & medicinal chemistry, 2018).

Data set [1] has as its system aspartate levels in cells. Conditions: irrespective of PHGDH levels; cited from earlier work.
The nature of data set [2]: Aqueous kinetic solubility. The settings on record: pH 7.4. Type of data set: physicochemical.
The next data set concerns PHGDH. Conditions: cited from earlier work.

With `Cc1cc(C)nc(NC(=S)N2CCN(c3ccc(C(F)(F)F)cn3)CC2)c1` [Compound 27, N-(4,6-dimethylpyridin-2-yl)-4-(5-(trifluoromethyl)pyridin-2-yl)piperazine-1-carbothioamide], in data set [1], the “aspartate levels in cells” value is recorded as “reduce aspartate levels in cells”.
As to `Cc1cc(C)nc(NC(=S)N2CCCC(Nc3ccc(C(F)(F)F)cc3)C2)c1` (centres unmarked) [Compound 33], the “Aqueous Solubility (kinetic)” value in data set [2] is reported as “below the limits of quantitation”.
On the same count and under the same terms, the same measure for `Cc1cc(C)nc(NC(=S)N2CCC(Nc3cccc(C(F)(F)F)c3)CC2)c1` [Compound 37]: “below the limits of quantitation”.
For `O=C(N/N=C/c1cc([N+](=O)[O-])ccc1O)c1ccc(O)cc1O` [PKUMDL-WQ-2101], in the data set with PHGDH, the efficacy in vivo entry is recorded as “efficacious in vivo”.
Consider `CCNC(=S)N/N=C/c1ccc(-c2ccc(C(=O)O)c(Cl)c2)o1` [PKUMDL-WQ-2201], for which the efficacy in vivo entry with PHGDH was “efficacious in vivo”.
